Where “and” joins values, the source holds several entries; their conditions need not be identical. Equal values may be shown once. Toxic doses and inconclusive results are not listed. How the source made its calls: active means survival T/C of 150% or more; inactive means T/C below 125% in these data.
Test system: P388 leukemia ip, CD2F1 mice, survival T/C
Assay: NCI In Vivo Anticancer Drug Screen. Data for tumor model P388 Leukemia (intraperitoneal) in CD2F1 (CDF1) mice
Details: endpoint: median survival time, higher = longer survival
Summary of the method: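 Mice carrying the transplanted tumor received test compound or vehicle. Survival was recorded in each group, and the value is the treated-group measurement divided by that of the vehicle-treated control group.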

[1] = dose: 50.0 mg/kg/injection, schedule: Q01DX001 (ip), vehicle: Klucel (hydroxypropylcellulose) (HPC)
[2] = dose: 100.0 mg/kg/injection, schedule: Q01DX001 (ip), vehicle: Klucel (hydroxypropylcellulose) (HPC)
[3] = dose: 50.0 mg/kg/injection, schedule: Q01DX009 (ip), vehicle: Klucel (hydroxypropylcellulose) (HPC)
[4] = dose: 100.0 mg/kg/injection, schedule: Q01DX009 (ip), vehicle: Klucel (hydroxypropylcellulose) (HPC)
[5] = dose: 200.0 mg/kg/injection, schedule: Q01DX009 (ip), vehicle: Klucel (hydroxypropylcellulose) (HPC)
[6] = dose: 25.0 mg/kg/injection, schedule: Q01DX005 (ip), vehicle: saline with Tween-80
[7] = dose: 50.0 mg/kg/injection, schedule: Q01DX005 (ip), vehicle: saline with Tween-80
[8] = dose: 60.0 mg/kg/injection, schedule: Q01DX005 (ip), vehicle: saline with Tween-80
[9] = dose: 120.0 mg/kg/injection, schedule: Q01DX005 (ip), vehicle: saline with Tween-80
[10] = dose: 240.0 mg/kg/injection, schedule: Q01DX005 (ip), vehicle: saline with Tween-80
[11] = dose: 200.0 mg/kg/injection, schedule: Q01DX009 (ip), vehicle: saline with Tween-80
[12] = dose: 100.0 mg/kg/injection, schedule: Q04DX003 (ip), vehicle: saline with Tween-80
[13] = dose: 200.0 mg/kg/injection, schedule: Q04DX003 (ip), vehicle: saline with Tween-80
[14] = dose: 50.0 mg/kg/injection, schedule: Q01DX009 (ip), vehicle: saline with Tween-80
[15] = dose: 100.0 mg/kg/injection, schedule: Q01DX009 (ip), vehicle: saline with Tween-80
[16] = dose: 50.0 mg/kg/injection, schedule: Q01DX005 (ip), vehicle: Klucel (hydroxypropylcellulose) (HPC)
[17] = dose: 100.0 mg/kg/injection, schedule: Q01DX005 (ip), vehicle: Klucel (hydroxypropylcellulose) (HPC)
[18] = dose: 200.0 mg/kg/injection, schedule: Q01DX005 (ip), vehicle: Klucel (hydroxypropylcellulose) (HPC)

Measured: T/C

Cc1ccc(OP(=O)(Oc2ccc(C)cc2)Oc2ccc(C)cc2)cc1.Cc1ccc(OP(=O)(Oc2ccc(C)cc2)Oc2ccc(C)cc2)cc1.Cc1ccc(OP(=O)(Oc2ccc(C)cc2)Oc2ccc(C)cc2)cc1.Cc1ccc(OP(=O)(Oc2ccc(C)cc2)Oc2ccc(C)cc2)cc1.[Cu+2].[O-][Cl+3]([O-])([O-])O
inactive: [1] 96 % of control | [2] 94 % of control | dose: 200.0 mg/kg/injection, schedule: Q01DX001 (ip), vehicle: Klucel (hydroxypropylcellulose) (HPC) 92 % of control

CC(C)=CCc1c(O)ccc(C(=O)C2C(c3c(O)cc(-c4cc5ccc(O)cc5o4)cc3O)C=C(C)CC2c2ccc(O)cc2O)c1O (stereo not given)
inactive: dose: 3.75 mg/kg/injection, schedule: Q01DX005 (ip), vehicle: water 94 % of control | dose: 7.5 mg/kg/injection, schedule: Q01DX005 (ip), vehicle: water 103 % of control | dose: 15.0 mg/kg/injection, schedule: Q01DX005 (ip), vehicle: water 99 % of control | dose: 30.0 mg/kg/injection, schedule: Q01DX005 (ip), vehicle: water 110 % of control | dose: 60.0 mg/kg/injection, schedule: Q01DX005 (ip), vehicle: water 113 % of control

COc1ccc(S(=O)(=O)NCCSSCCNS(=O)(=O)c2ccc(OC)cc2)cc1
inactive: [3] 91 % of control | [4] 93 % of control | [5] 94 % of control

COc1cc2c(cc1-c1coc3cc(OCC=C(C)C)ccc3c1=O)OCO2
inactive: dose: 9.0 mg/kg/injection, schedule: Q01DX005 (ip), vehicle: Klucel (hydroxypropylcellulose) (HPC) 96 % of control | dose: 18.0 mg/kg/injection, schedule: Q01DX005 (ip), vehicle: Klucel (hydroxypropylcellulose) (HPC) 94 % of control | dose: 36.0 mg/kg/injection, schedule: Q01DX005 (ip), vehicle: Klucel (hydroxypropylcellulose) (HPC) 87 % of control | dose: 72.0 mg/kg/injection, schedule: Q01DX005 (ip), vehicle: Klucel (hydroxypropylcellulose) (HPC) 92 % of control

COc1cccc(C=O)c1OCCSC
inactive: [6] 99 % of control | [7] 103 % of control | dose: 100.0 mg/kg/injection, schedule: Q01DX005 (ip), vehicle: saline with Tween-80 108 % of control

COc1cc(OC)c(C2c3cc4c(cc3OC(C)(O)C2C)OCO4)c(OC)c1 (stereo not given)
inactive: dose: 100.0 mg/kg/injection, schedule: Q04DX002 (ip), vehicle: saline with Tween-80 94 % of control | dose: 200.0 mg/kg/injection, schedule: Q04DX002 (ip), vehicle: saline with Tween-80 89 % of control | dose: 400.0 mg/kg/injection, schedule: Q04DX002 (ip), vehicle: saline with Tween-80 102 % of control

CCOC(=O)/C(C#N)=C(O)\C(=C\c1ccc(Cl)cc1)NC(=O)c1ccc(NC(C)=O)cc1
inactive: [8] 108 % of control | [9] 97 % of control | [10] 97 % of control

CN=NN(C)C(=O)NC
inactive: dose: 12.5 mg/kg/injection, schedule: Q01DX005 (ip), vehicle: saline 102 % of control | dose: 25.0 mg/kg/injection, schedule: Q01DX005 (ip), vehicle: saline 117 % of control

C#Cc1cccc(N=Cc2ccc(C=Nc3cccc(C#C)c3)cc2)c1
inactive: dose: 6.25 mg/kg/injection, schedule: Q01DX009 (ip), vehicle: saline with Tween-80 104 % of control | dose: 12.5 mg/kg/injection, schedule: Q01DX009 (ip), vehicle: saline with Tween-80 112 % of control | dose: 25.0 mg/kg/injection, schedule: Q01DX009 (ip), vehicle: saline with Tween-80 86 % of control | [11] 88 % of control

CC1(OC(=O)Nc2ccccc2)CCCCC1
inactive: [12] 96 % of control | [13] 100 % of control | dose: 400.0 mg/kg/injection, schedule: Q04DX003 (ip), vehicle: saline with Tween-80 97 % of control

NC(CC(C(=O)O)c1ccccc1)C(=O)O (stereo not given)
inactive: [14] 106 % of control | [15] 94 % of control | [11] 94 % of control

CNC1C(O)C(OC2C(N)CC(N)C(OC3OC(CN)=CCC3N)C2O)OCC1(C)O (stereo not given)
inactive: dose: 62.5 mg/kg/injection, schedule: Q01DX009 (ip), vehicle: saline 104 % of control | dose: 125.0 mg/kg/injection, schedule: Q01DX009 (ip), vehicle: saline 104 % of control

Nc1nc(-c2cc(C(c3ccccc3)c3ccccc3)nc(N)n2)cc(C(c2ccccc2)c2ccccc2)n1
inactive: [8] 105 % of control | [9] 109 % of control | [10] 101 % of control

Cc1ccc(/C(CBr)=N/N=C(/CBr)c2ccc(C)cc2)cc1
inactive: [3] 100 % of control | [4] 92 % of control | [5] 98 % of control

CCOC(=O)c1nc2c(N)nc(-c3ccccc3)nc2[nH]c1=O
inactive: [14] 94 % of control | [15] 92 % of control | [11] 97 % of control

O=C1CCCC2OC3CCCC(=O)C3C(c3ccccc3)C12 (stereo not given)
inactive: dose: 25.0 mg/kg/injection, schedule: Q01DX001 (ip), vehicle: Klucel (hydroxypropylcellulose) (HPC) 96 % of control | [1] 100 % of control | [2] 90 % of control

Cc1cc2c(C(C)C)c(O)c(O)c(C=NC3CCCCC3)c2c(O)c1-c1c(C)cc2c(C(C)C)c(O)c(O)c(C=NC3CCCCC3)c2c1O
inactive: dose: 12.5 mg/kg/injection, schedule: Q01DX005 (ip), vehicle: saline with Tween-80 103 % of control | [6] 92 % of control | [7] 88 % of control

C[C@@]12CCC[C@@](C)(C(=O)O)[C@H]1CC[C@]13C[C@@H](CO)[C@@H](CC[C@H]12)C3
inactive: [16] 99 % of control | [17] 90 % of control | [18] 87 % of control

NOCc1cccc([N+](=O)[O-])c1
inactive: dose: 50.0 mg/kg/injection, schedule: Q01DX009 (ip), vehicle: saline 104 % of control | dose: 100.0 mg/kg/injection, schedule: Q01DX009 (ip), vehicle: saline 95 % of control | dose: 200.0 mg/kg/injection, schedule: Q01DX009 (ip), vehicle: saline 100 % of control

COC1OC(CO)C2OC12 (stereo not given)
inactive: dose: 50.0 mg/kg/injection, schedule: Q01DX005 (ip), vehicle: saline 93 % of control and 103 % of control | dose: 100.0 mg/kg/injection, schedule: Q01DX005 (ip), vehicle: saline 94 % of control and 100 % of control | dose: 200.0 mg/kg/injection, schedule: Q01DX005 (ip), vehicle: saline 88 % of control and 99 % of control

Cn1cc(Cl)n(C)c(=O)c1=O
inactive: dose: 6.25 mg/kg/injection, schedule: Q01DX001 (ip), vehicle: saline with Tween-80 104 % of control | dose: 12.5 mg/kg/injection, schedule: Q01DX001 (ip), vehicle: saline with Tween-80 104 % of control | dose: 25.0 mg/kg/injection, schedule: Q01DX001 (ip), vehicle: saline with Tween-80 118 % of control

N#CC(C#N)(c1ccccc1)N1CCOCC1
inactive: dose: 25.0 mg/kg/injection, schedule: Q04DX003 (ip), vehicle: saline 109 % of control | dose: 50.0 mg/kg/injection, schedule: Q04DX003 (ip), vehicle: saline 100 % of control | [12] 100 % of control | dose: 100.0 mg/kg/injection, schedule: Q04DX003 (ip), vehicle: saline 104 % of control | [13] 96 % of control

CCc1ccc(N2C(=O)C(CC(=O)O)SC23C(=O)N(Cc2ccccc2)c2ccccc23)cc1 (stereo not given)
inactive: [8] 94 % of control | [9] 97 % of control

Cc1ccc(NC(=O)NCc2ccco2)cc1[N+](=O)[O-]
inactive: [16] 96 % of control | [17] 96 % of control | [18] 89 % of control

Source: PubChem BioAssay AID330 (DTP/NCI, 2004)
